This is an account of results in patent US11001578B2, “N-((HET)arylmethyl)-heteroaryl-carboxamides compounds as plasma kallikrein inhibitors” (KALVISTA PHARMACEUTICALS LIMITED, priority 2014, dated 2021).

For orientation: pIC50 means the IC50 on a negative log10 scale, so that one unit is a factor of ten. Higher therefore signals a low IC50.

SMILES strings stand for the structures. pIC50: −log10 of the molar value.

One experiment deals with Human FXIa (Homo sapiens (Human), UniProt P03951). In words: Determination of the % inhibition for FXIa (fluorogenic substrate Z-Gly-Pro-Arg-AFC). Format: biochemical. The settings on record: 40 μM of the test compound, 25° C. The procedure: Determination of the % Inhibition for FXIa
Human FXIa (Enzyme Research Laboratories) was incubated at 25° C. with the fluorogenic substrate Z-Gly-Pro-Arg-AFC and 40 μM of the test compound. Residual enzyme activity (initial rate of reaction) was determined by measuring the change in […].

Another experiment concerns the target Human KLK1 (Homo sapiens (Human), UniProt P06870). In words: Determination of the IC50 for KLK1 (fluorogenic substrate H-DVal-Leu-Arg-AFC). The experiment is classed as biochemical. The settings on record: 25° C. As to the method:
Determination of the IC50 for KLK1
Human KLK1 (Callbiochem) was incubated at 25° C. with the fluorogenic substrate H-DVal-Leu-Arg-AFC and various concentrations of the test compound. Residual enzyme activity (initial rate of reaction) was determined by measuring the change in […] at 410 nm and the IC50 value for the test compound was determined.

Sequence of Human FXIa (P03951 388-625 limits assumed): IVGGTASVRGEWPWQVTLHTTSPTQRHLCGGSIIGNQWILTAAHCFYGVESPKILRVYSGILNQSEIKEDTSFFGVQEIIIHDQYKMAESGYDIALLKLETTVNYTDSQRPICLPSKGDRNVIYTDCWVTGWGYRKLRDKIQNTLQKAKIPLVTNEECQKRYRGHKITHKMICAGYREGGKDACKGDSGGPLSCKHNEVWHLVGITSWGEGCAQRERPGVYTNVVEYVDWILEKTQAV
Sequence of Human FXIa (P03951 19-387 partner limits assumed): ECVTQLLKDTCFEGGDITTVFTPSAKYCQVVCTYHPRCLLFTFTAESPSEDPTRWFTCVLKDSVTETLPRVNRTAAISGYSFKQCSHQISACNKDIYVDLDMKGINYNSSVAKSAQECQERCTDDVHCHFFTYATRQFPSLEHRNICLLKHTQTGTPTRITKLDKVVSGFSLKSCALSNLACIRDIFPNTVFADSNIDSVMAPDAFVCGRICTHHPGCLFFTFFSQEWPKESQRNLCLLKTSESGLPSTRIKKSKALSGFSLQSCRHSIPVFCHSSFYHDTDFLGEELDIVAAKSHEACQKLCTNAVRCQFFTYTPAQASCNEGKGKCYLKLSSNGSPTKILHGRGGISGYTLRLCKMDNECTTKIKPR
Sequence of Human KLK1 (P06870 25-262): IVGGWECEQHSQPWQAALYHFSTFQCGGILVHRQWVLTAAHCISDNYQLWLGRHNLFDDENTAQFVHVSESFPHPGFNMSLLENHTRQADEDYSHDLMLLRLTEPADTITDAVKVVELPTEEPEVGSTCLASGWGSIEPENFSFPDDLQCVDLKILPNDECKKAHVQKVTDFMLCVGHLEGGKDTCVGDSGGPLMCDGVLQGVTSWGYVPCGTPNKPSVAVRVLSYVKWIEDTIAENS

As to `COc1cccc(CNC(=O)c2cn(Cc3ccc(Cn4ccccc4=O)cc3)nc2C2CC2)c1F` [Example 52, 3-cyclopropyl-N-[(2-fluoro-3-methoxyphenyl)methyl]-1-({4-[(2-oxopyridin-1-yl)methyl]phenyl}methyl)pyrazole-4-carboxamide], the “% Inhibition @ 40 μM (human FXIa)” value at Human FXIa was 1%.

With `Nc1nn(Cc2ccc(Cn3ccccc3=O)cc2)cc1C(=O)NCc1ccc(OC(F)(F)F)cc1` [Example 58, 3-amino-1-({4-[(2-oxopyridin-1-yl)methyl]phenyl}methyl)-N-{[4-(trifluoromethoxy)phenyl]methyl}pyrazole-4-carboxamide], the “% Inhibition @ 40 μM (human FXIa)” value at Human FXIa stood at 0%.

As to `COc1cc(F)c(CNC(=O)c2cn(Cc3ccc(Cn4cc(C)cn4)cc3)nc2C(F)(F)F)c(F)c1` [Example 11, N-[(2,6-difluoro-4-methoxyphenyl)methyl]-1-({4-[(4-methylpyrazol-1-yl)methyl]phenyl}methyl)-3-(trifluoromethyl)pyrazole-4-carboxamide], the pIC50 at Human KLK1 was under 5.00.

Turning to `NC(=O)c1cccc(CNC(=O)c2cn(Cc3ccc(Cn4ccccc4=O)cc3)nc2C2CC2)c1` [Example 49, N-[(3-carbamoylphenyl)methyl]-3-cyclopropyl-1-({4-[(2-oxopyridin-1-yl)methyl]phenyl}methyl)pyrazole-4-carboxamide], at Human FXIa, the “% Inhibition @ 40 μM (human FXIa)” value was 0%.
